Source: patent US10201585B2, “Methods for treatment of atherosclerosis” (Stealth Peptides International, Inc., priority 2012, dated 2019)
Entries after “also recorded” stand apart in the source; their conditions may differ.

Tested on: Apoprotein E deficient mice
Experiment: Total lesion area in aortic root 300 μm across aortic valve (cryosections, lipid staining)
Type: in vivo
Parameters: Total lesion area in aortic root 300 μm across aortic valve / Total lesion area in aortic root 300 μm across aortic valve, AVE: unit not given here
Excerpt: Apoprotein E deficient mice (Jackson Laboratories, 600 Main Street, Bar Harbor, Me.) were used in this study. The mice were male, 7-8 weeks of age, and between 18-20 g in weight. An initial total cholesterol measurement was made on 30 mice, and the mice were grouped into two groups of 15 to match the total cholesterol measurements. Both groups were fed a “western diet” (40 kcal % butterfat, 0.15% [wt/wt] cholesterol, Harlan Teklad diet TD-88137). Starting at t=0, the control group of 15 mice received vehicle only (phosphate buffered saline at pH 7.4), while the test group of 15 mice received aromatic-cationic peptide reconstituted in phosphate buffered saline. Body weights of the mice were recorded weekly, and mortality checks were performed daily.
The aromatic-cationic peptide D-Arg-2′6′-Dmt-Lys-Phe-NH2 (sterile lyophilized powder, reconstituted in phosphate buffered saline) was tested. […]
For the aortic sinus, the heart and approximately 5 mm of the ascending aorta was cut from the remainder of the aorta. […] The sinus was imaged at 5 step levels in the region of interest, i.e., the aortic root, for a total distance of 300 μm and the lipid-staining areas and measured (total cross sectional area) using a Nikon computerized image analysis system. The data were then computed by group and statistically analyzed.

Substance: D-Arg-2′6′-Dmt-Lys-Phe-NH2
- Total lesion area in aortic root 300 μm across aortic valve, AVE (group mean of 15 test mice, 12 weeks, vehicle group 351.77): 282.72
- Total (mean) lesion area in the aortic root, in words (treated versus vehicle, 12 weeks (Table 9, FIG. 3)): reduces; also recorded: lower
